# How the values were obtained:
# [1] = tested on: rabbit cornea; test: Stress-strain measurements of ex-vivo treated corneas; conditions: for Mean Young's Modulus Intensity / Mean ultimate stress Intensity: 30 min incubation then 30 min illumination (NIR for WST11, UVA for RF-D); for Mean Young's Modulus Intensity / Mean ultimate stress Intensity / Mean Young's Modulus Increase % / Mean ultimate stress Increase %: dipotassium salt; for Mean Young's Modulus Increase % / Mean ultimate stress Increase %: 30 min incubation, 30 min NIR, vs untreated fellow eyes
# Experimental: Eyes of rabbits (15-16 weeks old, weighting 3-4 Kg) were enucleated post mortem. Before enucleation, the 12 and 6 h position were marked on the sclera for preservation of subsequent cutting orientation. The corneas were de-epithelialized mechanically using a PKR scraper (Becton Dickenson, USA). Usually, about 10 rabbits were assigned to bacteriochlorophyll/NIR treatment, herein the “test group” (for example WST11/NIR), and 2 rabbits were treated by RF/UVA (herein the “RF/UVA group”) for comparison. In the test group, 10 eyes of 10 rabbits were immersed upside down for 30 minutes in test compound saline solution (Bchl-S) followed by NIR illumination (600-900 nm) with a diode laser at 10 mW/cm^2 for 30 minutes. The untreated contralateral eyes served as controls. In the RF/UVA group, RF-D solution was topically applied on 2 eyes of 2 rabbits, every 10 minutes, for 30 minutes, followed by UVA irradiation at 370 nm by a double diode at 3 mW/cm^2, for 30 minutes. After treatment, the corneo-scleral rings were removed and placed on paraffin hemisphere buttons with a matching shape to establish accurate sectioning without tissue stretching. […] The strips included 2 mm of sclera on both ends. Central corneal thickness was measured by ultrasonic pachymetry (Humphrey ultrasonic pachymeter, USA). The corneal strips were then transferred to the biomechanical tester.
# The corneal and scleral strips were clamped horizontally, at a distance of 6 mm, between the jaws of a microcomputer-controlled biomaterial tester (Minimat, Germany) with a 200 Newton force cell (FIG. 1). Controlled tightening of screws was performed with a calibrated screwdriver at a preset torque of 9 cN.m (Torqueleader, England). The strain was increased linearly at a rate of 1.0 mm/min and was measured up to tissue rupture. Young's modulus was calculated by the testing machine. Ultimate stress and Young's modulus were expressed in Mega Pascal (MPa) units.
# Stress-strain measurements were conducted in 12 rabbits as described in Materials and Methods. Briefly, 10 eyes of 10 rabbits were treated by WST11/NIR, and 2 eyes of 2 rabbits were treated by RF-D/UVA. The contralateral eyes served as control.
# [2] = tested on: de-epithelialized rabbit cornea; test: Photobleaching of photosensitizer in ex-vivo treated corneas; conditions: 20 min pretreatment
# Experimental: Corneas of eyes from euthanized rabbits were de-epithelialized. Usually, 5 rabbits were tested, and 8 of the 10 eyes were pretreated for 20 minutes with a bacteriochlorophyll derivative in saline (Bchl-S), using an eye cap. The solution excess was carefully tipped off with filter paper. The eyes were irradiated for the specified time duration: 0, 10, 30, and 60 min (two corneas per time frame). Additional two eyes were used as control. The corneas were removed, and the central buttons of 8-mm diameter were punched out with a round trephine. Absorption spectra were recorded using V-570 spectrophotometer (Jasco, Japan).
# It was previously described by the present inventors that generation of oxygen radicals upon illumination of certain bacteriochlorophyll derivatives such as WST11 in the absence of serum albumin is accompanied by bleaching of the NIR transition and absorption increase at ˜645 nm due to the photochemical generation of a chlorophyll-like molecules (Ashur et al. 2009). Such changes are therefore important markers for the photochemical activity of such bacteriochlorophyll derivatives in situ. […] Results obtained for 10 corneas of 5 euthanized rabbits treated with WST11 in saline are presented herein.
# Eight de-epithelialized eyes were retreated with WST11-S for 20 min using an eye cap, and the remaining 2 eyes served as control. […] In parallel, the absorption increased at 645 nm (upward arrow), typical to the corresponding chlorin derivative formation by the photochemical interaction of WST11 with molecular oxygen (Ashur et al., 2009)
# [3] = tested on: rabbit cornea; test: Penetration depth in cornea from aqueous 65% sucrose solution; format: in vivo; conditions: 2.5 mg/ml in aqueous 65% sucrose
# Experimental: Eyes of rabbits were enucleated and deepithelialised mechanically post mortem. The eyes were exposed to Bchl-S solution using an eye cap for 5, 10, and 30 minutes and to Bchl-D solution for 10 and 30 min, in darkness. Controls: untreated eyes, and one eye treated with dextran-500 only for 30 min in darkness. Following this pretreatment, the corneas were briefly rinsed with saline and the central 8-mm buttons were trephined, removed, wrapped in aluminum foil and frozen on dry ice until further use. Central serial corneal sagittal slices (12 μm) were cut with a cryomicrotome, mounted on a microscope glass slide and stored frozen in −70° C. until use. For measurement of fluorescence, the individual slices were placed on the microscope base and a photographic record was immediately taken. Fluorescence intensity of Bchl-S or Bchl-D treated corneas from 3 serial cryo sections was recorded at 760 nm, upon excitation at 740 nm, using a fluorescence microscope (BX61 Olympus, Japan) equipped with CCD camera (Cascade 512B, Roper Sci., USA) and a long pass filter of above 760 nm. The digital data was analyzed, using ImageJ software (NIH, USA). […]
smiles,measurement,setting,value
"CCC1C2=Cc3c(C)c(C(=O)NCCS(=O)(=O)[O-])c4[n]3[Pd][n]3c(c(C)c(C(C)=O)c3=CC(=N2)C1C)=CC1=NC(=C4CC(=O)OC)C(CCC(=O)[O-])C1C.[K+].[K+] (centres unmarked) [WST11, Palladium 3^1-oxo-15-methoxycarbonylmethyl-rhodobacteriochlorin 13^1-(2-sulfoethyl)amide dipotassium salt]",Mean Young's Modulus Intensity,[1],17.65 ± 8.25 MPa
same,Mean ultimate stress Intensity,[1],5.98 ± 2.11 MPa
same,Mean Young's Modulus Intensity,[1]; listed as WST11-S,17.65 MPa
same,Mean ultimate stress Intensity,[1]; listed as WST11-S,5.98 MPa
same,Mean Young's Modulus Increase %,[1],410%
same,Mean ultimate stress Increase %,[1],286%
same,Mean Young's Modulus Increase %,[1]; listed as WST11-S,369%
same,Mean ultimate stress Increase %,[1]; listed as WST11-S,267%
same,increase in the corneal stiffness,"[1]; 30 min pre-incubation then NIR, vs untreated control eyes",~3 fold
same,755-nm absorption of corneal WST11 diminished by,[2]; NIR illumination 10 min,30%
same,755-nm absorption of corneal WST11 diminished by,[2]; NIR illumination 30 min,50%
same,755-nm absorption of corneal WST11 diminished by,[2]; NIR illumination 60 min,75%
same,"penetration, fraction of the outer stroma",[3]; 10-min incubation,⅓
same,"penetration, fraction of the outer stroma",[3]; 30-min incubation,½

# Source: patent publication US11058772B2, “(Bacterio)chlorophyll photosensitizers for treatment of eye diseases and disorders” (Yeda Research and Development Co. Ltd., priority 2011, dated 2021)
